Series [1] can be described thus: dosing/tolerability in B6D2F1 mice. In kind it is in vivo. On the procedure: (§1) HMAF was also evaluated against P388 leukemia in mice. The tumor inoculum is prepared by removing ascites fluid containing P388 cells from tumored B6D2F1 mice, centrifuging the cells, and then resuspending the leukemia cells in saline. Mice receive 1×10^6 P388 cells i.p. on day 0. Initial dosing experiments on a daily×5 schedule in B6D2F1 mice established the MTD of HMAF as 7.5 mg/kg. HMAF was tested at doses of 7.5 and 5.0 mg/kg vs. the P388 leukemia model. […] A T/C value of 150 means that treated mice lived 50% longer than the controls. Weight loss at the higher dose was 13% on day 8, again confirming that 7.5 mg/kg is the MTD for this agent on the daily×5 schedule.

Series [2] can be described thus: tolerability in nude mice (MX-1 study). In kind it is in vivo. The text has this: (§2) Nude mice are implanted subcutaneously (s.c.) by trocar with fragments of MX-1 mammary carcinomas harvested from s.c. growing MX-1 tumors in nude mice hosts. When tumors are approximately 5 mm×5 mm in size (usually about ten days after inoculation), the animals are pair-matched into treatment and control groups. Each group contains 10 tumored mice, each of which is eartagged and followed individually throughout the experiment. The administration of drugs or vehicle begins the day the animals are pair-matched (day 1). The doses, route of drug administration and schedule are selected as appropriate for the study in question, If the maximum tolerated dose (MTD) of an agent is not known, it was determined in an initial dosing experiment in non-tumored mice. In a typical experiment, drugs are given at their MTD and 1/2 MTD doses i.p. on a daily×5 schedule.
(§3) HMAF was evaluated against the MX-1 mammary carcinoma xenograft at the MTD of 7.5 mg/kg, and also at 5.0 mg/kg, i.p. daily×5, delivered in 10% cremophor, 20% ethanol and 70% isotonic saline. The 7.5 mg mg/kg dose caused no lethality, or unacceptable weight loss to the nude mice (day 8 weight loss=9.5%). […] The 5.0 mg/kg dose produced 2 complete regressions, and an average 88% tumor shrinkage in the other 8 mice.

Series [3] deals with B16 melanoma. The experiment in a line: in vitro activity, B16. In kind it is cell-based.
Series [4] has as its system 8392 cells (B-cell). The experiment in a line: cells. Type of series: cell-based. Conditions: 2 h, read-out: Two hour IC50.
The test system of series [5] is HL60 cells (myeloid). In words: cells. In kind it is cell-based, human.
The subject of series [6] is HT-29 human colon tumor. In words: in vitro activity, HT-29. Type of series: cell-based. Conditions: HT-29, HT29.
In series [7] the test system is human lung adenocarcinoma MV522. In words: animal or person. Conditions: MV522, ip, read-out: life span.
Series [8] deals with P388 leukemia. In words: P388 leukemia in mice. Type of series: in vivo, murine. On the procedure:
as §1

Series [9] has as its system HL60 cells. In words: cells. Type of series: cell-based. Conditions: Homo sapiens, HL-60, 48 h, read-out: 48 hour IC50.
Series [10] concerns 8392 cells. In words: cells. Conditions: 48 h, read-out: 48 hour IC50. In kind it is cell-based.
In series [11] the test system is MCF-7 human breast tumor. In words: in vitro activity, MCF-7. Type of series: cell-based.
The test system of series [12] is murine P388 cells. In words: in vitro activity, P388. Type of series: cell-based.
The subject of series [13] is MX-1 mammary carcinoma xenograft. In words: MX-1 human breast tumor xenograft in nude mice. In kind it is in vivo.
Text: as §2
The experiment is usually terminated when control tumors reach a size of 2-3 g. Mice are weighed twice weekly, and tumor measurements are taken by calipers twice weekly, starting on day 1. These tumor measurements are converted to mg tumor weight by a well-known formula, and from these calculated tumor weights the termination date can be determined. Upon termination, all mice are weighed, sacrificed, and their tumors excised. Tumors, are weighed, and the mean tumor weight per group is calculated. In this model, the mean treated tumor weight/mean control tumor weight×100% (T/C) is subtracted from 100% to give the tumor growth inhibition (TGI) for each group).
Some drugs cause minor shrinkage in the MX-1 model. With these agents, the final weight of a given tumor is subtracted from its own weight at the start of treatment on day 1. This difference divided by the initial tumor weight is the % shrinkage. A mean % tumor shrinkage can be calculated from data from the mice in a group that experienced MX-1 regressions. If the tumor completely disappears in a mouse, this is considered a complete regression or complete tumor shrinkage.
as §3
For orientation: Xenograft models place foreign cells or tissue in a host animal.

The subject of series [14] is MV522. The experiment in a line: cells. In kind it is cell-based. The note with it: Homo sapiens, MV522, 48 h, read-out: 48 hour IC50.
In series [15] the test system is human lung adenocarcinoma MV522. Conditions: in vivo.
Series [16] concerns B16 melanoma. In words: B16 melanoma in mice. Type of series: in vivo. The note with it: same doses as P388.
Series [17] deals with MV522 cells. The experiment in a line: cells. Type of series: cell-based, human.
Series [18] has as its system Dunning leukemia. The note with it: NCI DCT; cited from earlier work.
Series [19] can be described thus: kinetics of the reaction with dilute HCl. In kind it is physicochemical. The note with it: illudin M. The text has this:
Consistent with the above hypothesis are the results of the kinetics of the reaction of illudin M and dehydroilludin M with dilute HCl. […] In the reaction with dehydroilludin M, no intermediate could be detected by NMR spectroscopy. Presumably it formed too slowly and is too short-lived to be detected.

Series [20] relates to HL-60 cells. In words: cells. In kind it is cell-based, human. Conditions: Homo sapiens, HL-60.

The values below come from patent US5563176A (priority 1994, dated 1996).

Converted amounts (≈) assume the structure as drawn. “And” between values parts separate entries of the source, which are not always exact repeats. Equal values may be shown once. Read-outs that look alike come from different tables or passages of the source.

As to `CC1=C(CO)C2=C(C)C3(CC3)[C@@](C)(O)C(=O)C2=C1` [6-hydroxymethylacylfulvene], the weight loss was found to be 13% in series [1] (higher dose, day 8, P388 study) and 9.5% in series [2] (7.5 mg/kg i.p. daily×5, day 8). For the same compound, the MTD (in general, the highest dose tested that stayed within the study's limit of toxicity) stood at 7.5 mg/kg in series [1] (mouse, in vivo, daily×5, B6D2F1 mice) and 7.5 mg/kg in series [2] (mouse, in vivo, ip, i.p. daily×5, nude mice). The lethality result in series [2] (7.5 mg/kg i.p. daily×5) is listed as “no lethality”. Besides, the IC50 – broadly, the concentration that gives 50% inhibition – in series [3] (B16, listed as HMAF) was 4.65 µg/mL and 3.73 µg/mL; in [3] (Mus musculus, B16, B16, read-out: IC50) it was 3.73 to 4.65 µg/mL (≈ 15.1 to 18.9 µM); in series [4] it was 7360 nM; in [5] (Homo sapiens, HL-60, 2 h, read-out: Two hour IC50), 150 ± 11 nM; in series [6], 0.05 µg/mL (≈ 0.203 µM); in [9], 4 ± 1 nM. Besides, the half-maximal inhibitory concentration (IC50) in series [10] was 76 ± 4 nM; in series [11] (Homo sapiens, MCF7, MCF-7, read-out: IC50), 0.036 to 0.07 µg/mL (≈ 0.146 to 0.284 µM); in series [11] (MCF-7, listed as HMAF) it was 0.036 µg/mL and 0.043 µg/mL; in [12] (Mus musculus, P388, P388, read-out: IC50), 0.16 to 0.32 µg/mL (≈ 0.65 to 1.3 µM); in series [12] (P388, listed as HMAF), 0.165 µg/mL and 0.319 µg/mL; in [14] it was 73 ± 8 nM. In series [17] (Homo sapiens, MV522, 2 h, read-out: Two hour IC50), the IC50 was determined as 114 ± 28 nM. Besides, the “toxicity to target tumor cells” value in [5] is given as “markedly toxic”; in [17] (MV522, 2 and 48 hour), “markedly toxic”. Also, the response vs control in vivo at 1 mg/kg in [7] was found to be 135 ± 10%. Also, the response vs control in vivo at 5 mg/kg in [7] was found to be 154 ± 13%. In addition, the “treated/control (T/C)” value in series [8] (5.9 mg/kg) worked out at 137; in series [8] (6.5 mg/kg), 140. In series [13] (5.0 mg/kg i.p. daily×5, of 10 mice), this compound came in with a complete regressions of 2. Also, the average tumor shrinkage came out at 88% in [13] (5.0 mg/kg i.p. daily×5, other 8 mice) and 91% in series [13] (7.5 mg/kg i.p. daily×5, other 6 mice). This compound returned a complete tumor regressions in [13] (7.5 mg/kg i.p. daily×5, of 10 mice) of 4 mice. Further, the “activity in MX-1 xenograft” value in series [13] (in vivo) is “highly active”. Also, in series [15], the “efficacy in this model” value is “markedly increased the life span”. Also, the “life span versus control” value in series [15] is listed as “lived significantly longer”. Further, the “toxic side effects (activity, weight gain, food or water intake)” value in series [15] is listed as “no evidence of toxic side effects”. In series [15] (10 mg/kg), the tumor growth response entry is “Tumor regression”. The animals alive in [15] (ip, 10 mg/kg) is listed as 2 animals alive, ? cured. In addition, in [15] (ip, 10 mg/kg), the life span is 233 ± 18% and 232 ± 20% and > 204%. In addition, the “activity against B16 melanoma in mice” value in series [16] is “inactive”.
In the case of `CC1=C2C(=CC(C)(C)C2O)C(=O)[C@](C)(O)C12CC2` (stereo partly shown) [Illudin M, reference compound], the “life span of rats with Dunning leukemia” value in series [18] is recorded as “significantly increased the life span”. Moreover, in series [19], the half-life (as a rule, the time needed for the level to fall by half in the phase considered) came out at 2.47 h and the “k, pseudo first-order reaction” value was 4.7×10^-3. For the same compound, the IC50 in [20] is 10 nM.
